Results reported in patent US9468208B2, “Disease control with tick phospholipase A2” (The United States of America, as represented by the …, priority 2009, dated 2016).

What was measured:
B. burgdorferi = experiment: Borreliacidal assay of saliva alone versus saliva plus phospholipase A2 inhibitor OPC; format: cell-based, Borrelia burgdorferi; conditions: 24 hrs, A. americanum saliva plus OPC 5-40 μM; culture controls 79
Procedure: Gel filtration fractionation of A. americanum saliva produces individual fractions with borreliacidal activity. Saliva is fractionated into 11 molecular weight pools by gel filtration and then tested by a borreliacidal assay as described by Zeidner, et al. 2009. Briefly, A. americanum saliva is size fractionated on a Superdex 200 column run with 25 mM NaCl dissolved in 5 mM HEPES (pH 7.6) at a flow rate of 0.5 ml per minute. The separation is monitored at […]. Fractions are collected at 1 minute intervals into siliconized eppendorf tubes. Each collected fraction is subsequently concentrated to 100 μl using a SpeedVac. 50 μl aliquots of the fractions are pooled according to the major molecular weight peaks at between 2 and 10 fractions per pool. Each pool is subsequently concentrated to 50 μl using Micron-3K filters (Millipore, Billerica, Mass.).
Inhibition of A. americanum borreliacidal activity using oleyloxyethyl phosphorylcholine (OPC) identifies phospholipase A2 as an active component of A. americanum saliva. The borreliacidal assay of Example 6 is performed comparing saliva alone with saliva plus the phospholipase A2 inhibitor OPC. […]

[1] = system: B31 B. burgdorferi isolates; experiment: B. burgdorferi viability, live/dead BacLight staining counts; format: cell-based, Borrelia burgdorferi; conditions: 35° C., BSK-H, starting 155 live spirochetes per field
Procedure: Evaluation of PLA2 protein regulation of B. burgdorferi viability. Analyses of PLA2 protein is performed essentially as described by Ledin, K. E., et al., Med. Vet. Entomol., 2005; 19(1):90-95, the contents of which are incorporated herein by reference. Frozen stocks of low-passage B31 B. burgdorferi isolates (Shelter Island, N.Y.) are reconstituted in BSK-H culture medium and maintained at 35° C. to log phase (Piesman, 1993). Spirochete cultures are diluted with BSK-H to a density of 4.7×10^7 viable spirochetes per mL as counted in a Petroff-Hauser chamber under dark-field microscopy, and distributed in 15 μL aliquots into 0.7 mL tubes for a total of 7.05×10^5 spirochetes per tube. A mean starting concentration of 155 live spirochetes per field is assessed prior to the addition of specific treatments. Each 15 μL aliquot of spirochetes in BSK-His treated with either 15 μL of sterile PBS, 15 μL of 1.33 mg/mL pilocarpine (based on the mid-range of pilocarpine found in previous analysis of tick saliva, (Ribeiro et al., 2004) in sterile PBS, or 15 μL of tick saliva, and incubated at 35° C. 10 μL samples taken from each of 10 prepared cultures and assessed for spirochete survival at 0, 24 and 48 h. Time points for spirochete survival assessment are chosen based on previous observations of post-feeding decreases in spirochete-positive ticks (Ryder et al., 1992). […]

| SMILES | percent control live spirochetes (B. burgdorferi) | average number of live spirochetes (mean) ([1]; 24 h post-exposure) | average number of live spirochetes (mean) ([1]; 48 h post-exposure) |
| --- | --- | --- | --- |
| CCCCCCCC/C=C\CCCCCCCCOCCOP(=O)([O-])OCC[N+](C)(C)C [OPC, oleyloxyethyl phosphorylcholine] | 76-78% | – | – |
| CC[C@@H]1C(=O)OC[C@@H]1Cc1cncn1C [pilocarpine] | – | 82.1 counts per 10 high powered (10 | 58.2 counts per 10 high powered (10 |
